Test results: ChEMBL document CHEMBL1201862, “PubChem BioAssay data set” (2004)
The source made the active and inactive calls.

What was measured:
[1] = biological target: T1, Eukaryotic translation initiation factor 2-alpha kinase 3 (Homo sapiens, UniProt Q9NZJ5); test: Counterscreen assay for PERK inhibitors: Dose response cell-based high throughput screening assay to measure inhibition of PERK at 6 hours. [Related pubchem assays: 1522, 1416 ]; type: functional
T1 sequence (Q9NZJ5 whole entry): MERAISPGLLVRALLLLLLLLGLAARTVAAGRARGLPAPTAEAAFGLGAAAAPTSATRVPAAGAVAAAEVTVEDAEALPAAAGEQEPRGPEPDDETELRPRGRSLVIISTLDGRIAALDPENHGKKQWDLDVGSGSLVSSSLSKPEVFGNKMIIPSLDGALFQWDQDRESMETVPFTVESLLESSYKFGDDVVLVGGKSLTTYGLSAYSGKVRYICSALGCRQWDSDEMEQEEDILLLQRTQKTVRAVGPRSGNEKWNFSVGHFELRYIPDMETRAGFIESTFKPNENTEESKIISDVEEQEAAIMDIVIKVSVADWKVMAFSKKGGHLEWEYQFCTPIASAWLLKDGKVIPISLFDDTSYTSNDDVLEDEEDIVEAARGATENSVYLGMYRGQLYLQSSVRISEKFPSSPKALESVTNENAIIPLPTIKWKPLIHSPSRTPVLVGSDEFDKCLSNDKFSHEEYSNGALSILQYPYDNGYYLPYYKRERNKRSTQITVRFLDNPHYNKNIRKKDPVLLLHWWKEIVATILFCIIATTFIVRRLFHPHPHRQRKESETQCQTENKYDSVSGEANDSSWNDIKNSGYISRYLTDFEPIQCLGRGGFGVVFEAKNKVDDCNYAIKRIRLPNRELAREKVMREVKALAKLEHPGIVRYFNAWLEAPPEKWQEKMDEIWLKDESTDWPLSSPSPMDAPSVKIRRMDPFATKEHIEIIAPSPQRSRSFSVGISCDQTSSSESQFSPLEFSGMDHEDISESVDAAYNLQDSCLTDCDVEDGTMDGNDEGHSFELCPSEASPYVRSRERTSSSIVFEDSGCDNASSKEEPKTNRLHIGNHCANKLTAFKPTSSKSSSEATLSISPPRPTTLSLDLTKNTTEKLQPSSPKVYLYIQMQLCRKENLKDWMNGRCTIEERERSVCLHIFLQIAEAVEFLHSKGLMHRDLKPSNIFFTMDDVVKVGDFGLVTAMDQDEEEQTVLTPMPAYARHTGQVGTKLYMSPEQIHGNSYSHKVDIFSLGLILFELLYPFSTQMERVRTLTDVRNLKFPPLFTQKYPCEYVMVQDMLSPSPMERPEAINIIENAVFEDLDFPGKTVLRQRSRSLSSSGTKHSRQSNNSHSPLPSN

[2] = biological target: T1, Eukaryotic translation initiation factor 2-alpha kinase 3; test: Dose response cell-based high-throughput screening assay to measure PERK inhibition. [Related pubchem assays: 1416 ]; type: functional
[3] = biological target: Cytochrome P450 2C19 (Homo sapiens, UniProt P33261); test: Cytochrome panel assay with activity outcomes. Panel member name: p450-cyp2c19 Compounds with AC50 equal or less than 10 uM are considered active; type: functional; conditions: read-out: AC50
Chain of Cytochrome P450 2C19 (P33261 whole entry): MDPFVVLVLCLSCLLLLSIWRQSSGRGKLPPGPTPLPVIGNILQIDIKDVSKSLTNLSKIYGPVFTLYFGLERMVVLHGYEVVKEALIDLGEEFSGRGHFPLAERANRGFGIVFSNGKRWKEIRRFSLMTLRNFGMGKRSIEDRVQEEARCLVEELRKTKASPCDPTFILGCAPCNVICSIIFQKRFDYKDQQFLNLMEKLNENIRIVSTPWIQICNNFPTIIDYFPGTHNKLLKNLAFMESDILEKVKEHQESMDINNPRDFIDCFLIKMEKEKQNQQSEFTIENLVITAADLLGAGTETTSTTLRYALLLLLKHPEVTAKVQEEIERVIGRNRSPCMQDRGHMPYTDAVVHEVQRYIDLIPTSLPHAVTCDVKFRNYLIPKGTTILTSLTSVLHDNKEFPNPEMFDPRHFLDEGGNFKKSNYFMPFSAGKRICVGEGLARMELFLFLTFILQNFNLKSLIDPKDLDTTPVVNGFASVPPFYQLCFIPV

[4] = biological target: T2, Alkaline phosphatase, tissue-nonspecific isozyme (Homo sapiens, UniProt P05186)
T2 sequence (P05186 whole entry): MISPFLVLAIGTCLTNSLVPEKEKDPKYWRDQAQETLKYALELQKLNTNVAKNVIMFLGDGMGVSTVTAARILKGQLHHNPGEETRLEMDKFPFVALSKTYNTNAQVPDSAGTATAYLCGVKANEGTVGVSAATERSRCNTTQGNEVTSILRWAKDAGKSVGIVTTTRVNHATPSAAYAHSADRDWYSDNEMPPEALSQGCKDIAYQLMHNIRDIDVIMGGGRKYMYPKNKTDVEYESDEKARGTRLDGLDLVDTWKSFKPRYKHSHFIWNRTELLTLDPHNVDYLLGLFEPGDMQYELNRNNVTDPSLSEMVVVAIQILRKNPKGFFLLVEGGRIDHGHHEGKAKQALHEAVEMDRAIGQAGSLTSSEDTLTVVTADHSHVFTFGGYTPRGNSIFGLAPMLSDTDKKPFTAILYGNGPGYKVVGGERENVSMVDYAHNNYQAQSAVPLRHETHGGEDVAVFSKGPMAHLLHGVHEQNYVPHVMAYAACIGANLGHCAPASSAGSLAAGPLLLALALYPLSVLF

[5] = biological target: Cytochrome P450 2C9 (Homo sapiens, UniProt P11712)
Chain of Cytochrome P450 2C9 (P11712 whole entry): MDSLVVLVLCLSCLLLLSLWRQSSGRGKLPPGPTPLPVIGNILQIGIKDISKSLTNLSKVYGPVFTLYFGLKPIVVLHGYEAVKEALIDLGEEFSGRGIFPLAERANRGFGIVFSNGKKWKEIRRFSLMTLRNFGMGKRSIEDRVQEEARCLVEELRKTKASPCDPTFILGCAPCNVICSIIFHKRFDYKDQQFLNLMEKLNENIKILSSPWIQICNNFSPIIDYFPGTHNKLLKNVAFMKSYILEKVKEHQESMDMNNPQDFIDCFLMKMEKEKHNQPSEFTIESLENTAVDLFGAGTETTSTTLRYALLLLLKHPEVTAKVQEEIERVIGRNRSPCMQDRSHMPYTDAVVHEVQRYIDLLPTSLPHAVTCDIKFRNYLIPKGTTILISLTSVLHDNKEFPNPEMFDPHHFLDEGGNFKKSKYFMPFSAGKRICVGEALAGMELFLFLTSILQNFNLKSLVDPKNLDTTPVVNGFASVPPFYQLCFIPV

[6] = biological target: Mothers against decapentaplegic homolog 3 (Homo sapiens, UniProt P84022); test: Smad3 binding inhibitors, lysate ELISA, dose response, cell lysate, secondary confirmation, chemiluminescent ELISA, HEK293 lysate (AID 1058); type: functional
Chain of Mothers against decapentaplegic homolog 3 (P84022 whole entry): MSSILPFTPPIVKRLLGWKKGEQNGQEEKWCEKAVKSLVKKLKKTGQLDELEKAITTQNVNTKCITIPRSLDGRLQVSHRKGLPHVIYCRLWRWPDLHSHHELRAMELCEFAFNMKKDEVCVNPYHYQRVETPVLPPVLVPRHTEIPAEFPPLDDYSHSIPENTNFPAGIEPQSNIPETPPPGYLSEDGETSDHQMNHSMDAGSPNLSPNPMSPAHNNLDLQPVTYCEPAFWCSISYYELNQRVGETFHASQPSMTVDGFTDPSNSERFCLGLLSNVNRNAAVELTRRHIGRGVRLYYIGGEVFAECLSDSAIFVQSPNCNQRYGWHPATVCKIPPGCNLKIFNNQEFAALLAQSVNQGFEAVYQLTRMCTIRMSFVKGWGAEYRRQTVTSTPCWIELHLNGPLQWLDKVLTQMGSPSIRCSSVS

[7] = tested on: HeLa; test: HeLa cell cytotoxicity, dose response, cytotoxicity control, 24 h, cherry-picked samples (AID 504726); type: functional, cell-based; conditions: Homo sapiens;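 further: potency for cytotoxicity as loss of luminescence signal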
[8] = A375 melanoma cell cytotoxicity, dose response, counter-screen for MITF inhibitor project, CellTiter-Glo luminescence, dry powder, set 2 (AID 624489); type: functional, cell-based; conditions: A-375;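 further: actives are compounds lowering A375 viability meaning general cytotoxicity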
[9] = Luminescence Cell-Based Dose Retest to Confirm Inhibitors of Cancer Stem Cells. [Related pubchem assays (depositor defined):AID2717, AID2721]; type: functional; conditions: Homo sapiens
[10] = A375 melanoma cell viability loss, dose response, counter-screen for MITF inhibitor project, CellTiter-Glo luminescence, dry powder, set 4 (AID 624364); type: functional, cell-based; conditions: A-375;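 further: A375 melanoma cells are MITF independent so this is a counter screen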
[11] = A Cell Based Secondary Assay To Explore Cytotoxicity of Compounds that Sensitize Mycobacterium Tuberculosis to Beta-Lactam Antibiotics.; type: functional
[12] = biological target: T3, Microphthalmia-associated transcription factor (Homo sapiens, UniProt O75030); test: TRPM1 promoter luciferase signal decrease, dose response, MITF inhibitor project, cell-based, SK-MEL-5, cherry-picked, set 3 (AID 493073); type: functional
T3 sequence (O75030 whole entry): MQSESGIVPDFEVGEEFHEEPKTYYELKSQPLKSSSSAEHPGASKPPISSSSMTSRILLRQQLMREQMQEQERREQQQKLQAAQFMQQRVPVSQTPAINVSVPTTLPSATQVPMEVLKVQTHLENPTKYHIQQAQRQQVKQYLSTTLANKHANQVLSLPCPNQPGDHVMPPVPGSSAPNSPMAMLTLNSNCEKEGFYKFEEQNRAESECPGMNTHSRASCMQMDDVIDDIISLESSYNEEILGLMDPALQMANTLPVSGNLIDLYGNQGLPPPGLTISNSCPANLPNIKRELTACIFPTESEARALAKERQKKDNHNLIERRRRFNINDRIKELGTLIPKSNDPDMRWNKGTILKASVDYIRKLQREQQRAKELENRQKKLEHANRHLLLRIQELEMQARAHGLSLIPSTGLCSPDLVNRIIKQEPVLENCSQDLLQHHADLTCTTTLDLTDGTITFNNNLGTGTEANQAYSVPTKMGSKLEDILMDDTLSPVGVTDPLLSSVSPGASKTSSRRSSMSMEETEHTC

[13] = biological target: T4, Streptokinase A (Streptococcus pyogenes serotype M1, UniProt P10520); test: S. pyogenes streptokinase expression inhibitors, potency, dose response, plasminogen activation absorbance, OD405 (AID 1914); type: functional, Streptococcus pyogenes M1 GAS;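 further: secreted streptokinase activity via plasminogen activation per viability signal from cell pellet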
T4 sequence (P10520 whole entry): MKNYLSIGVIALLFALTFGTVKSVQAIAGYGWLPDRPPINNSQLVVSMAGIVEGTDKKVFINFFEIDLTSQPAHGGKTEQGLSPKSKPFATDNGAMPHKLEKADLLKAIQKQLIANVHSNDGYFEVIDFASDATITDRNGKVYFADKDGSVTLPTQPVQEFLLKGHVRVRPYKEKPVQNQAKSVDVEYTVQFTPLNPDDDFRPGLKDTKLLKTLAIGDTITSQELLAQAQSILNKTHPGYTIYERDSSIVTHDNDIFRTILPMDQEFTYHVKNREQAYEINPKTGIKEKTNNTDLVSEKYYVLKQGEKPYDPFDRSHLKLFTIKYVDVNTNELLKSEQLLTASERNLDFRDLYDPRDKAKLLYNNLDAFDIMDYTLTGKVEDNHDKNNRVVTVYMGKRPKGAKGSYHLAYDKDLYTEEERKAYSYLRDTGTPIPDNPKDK

[14] = biological target: T5, Hexokinase HKDC1 (Homo sapiens, UniProt Q2TB90); test: HKDC1 hexokinase inhibitors, dose response, biochemical, W721R variant (AID 504729); type: functional
T5 sequence (Q2TB90 whole entry): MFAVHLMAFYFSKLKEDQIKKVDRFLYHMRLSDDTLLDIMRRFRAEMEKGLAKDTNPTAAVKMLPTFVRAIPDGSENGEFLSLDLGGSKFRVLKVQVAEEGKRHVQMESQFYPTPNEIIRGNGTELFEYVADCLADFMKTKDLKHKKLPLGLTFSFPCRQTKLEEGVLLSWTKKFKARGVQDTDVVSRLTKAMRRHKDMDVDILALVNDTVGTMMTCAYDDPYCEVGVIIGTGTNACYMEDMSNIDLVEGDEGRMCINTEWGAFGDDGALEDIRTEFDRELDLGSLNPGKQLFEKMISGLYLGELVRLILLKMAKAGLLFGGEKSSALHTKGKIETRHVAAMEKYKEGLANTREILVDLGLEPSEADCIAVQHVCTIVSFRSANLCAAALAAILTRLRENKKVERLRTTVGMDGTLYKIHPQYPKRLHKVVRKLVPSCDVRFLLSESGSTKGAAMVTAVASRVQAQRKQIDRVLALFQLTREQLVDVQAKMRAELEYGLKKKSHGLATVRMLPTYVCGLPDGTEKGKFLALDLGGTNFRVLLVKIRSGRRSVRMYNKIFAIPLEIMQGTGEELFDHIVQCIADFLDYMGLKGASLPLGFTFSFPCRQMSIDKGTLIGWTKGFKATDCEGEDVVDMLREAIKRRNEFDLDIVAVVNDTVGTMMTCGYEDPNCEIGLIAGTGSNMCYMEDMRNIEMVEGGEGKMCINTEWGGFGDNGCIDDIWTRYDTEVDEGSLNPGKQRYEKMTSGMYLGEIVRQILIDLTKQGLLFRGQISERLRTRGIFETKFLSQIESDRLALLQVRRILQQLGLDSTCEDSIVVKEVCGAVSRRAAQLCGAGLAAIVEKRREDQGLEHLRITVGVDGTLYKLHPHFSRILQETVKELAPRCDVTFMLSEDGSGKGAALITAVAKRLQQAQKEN

[15] = tested on: Streptococcus sp. 'group A'; test: growth inhibition of control SK(-) GAS strain, dose response, counter-screen for streptokinase expression inhibitor project, luminescence, kanamycin, BacTiterGlo, confirmation (AID 1900); type: functional, organism-based
[16] = tested on: Streptococcus; test: Group A Streptococcus viability loss, dose response, counter-screen for streptokinase expression inhibitor project, luminescence, BacTiterGlo (AID 1915); type: functional, organism-based;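 further: potency for reduction of bacterial viability or growth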

SMILES: Cc1nc([N+](=O)[O-])cn1CCC#N
- EC50 [1]: > 55.7 µM (not active)
- EC50 [2]: > 55.7 µM (not active)

SMILES: O=C(CCN1C(=O)/C(=C/c2cccc(Br)c2)SC1=S)NNC(=O)c1cccnc1
- AC50 [3]: 1.58 µM (inconclusive)
- EC50 [4]: 83.8 µM (not active)
- AC50 [5]: 0.447 µM (inconclusive)

SMILES: O=C1OC2(c3ccc(O)cc3Oc3cc(O)ccc32)c2ccccc21 [FLUORESCEIN]
- IC50 [6]: 4.89 µM (not active)

SMILES: CCOc1ccc(C(C)NC(=O)c2ccccc2OCc2c(C)noc2C)cc1OCC (stereo not given)
- AC50 [7]: 113 µM (active)

SMILES: COc1cccc(C(c2cc3c(cc2O)OCO3)N2CCOCC2)c1OC (stereo not given)
- IC50 [6]: 6.43 µM (not active)

SMILES: CC1CCN(CC(CS(=O)(=O)c2ccc([N+](=O)[O-])cc2)N2CCC(C)CC2)CC1 (stereo not given)
- AC50 [8]: > 70 µM (inactive)
- AC50 [9]: 1.59 µM (active)
- AC50 [10]: > 70 µM (inactive)
- CC50 [11]: 7.41 µM (active)
- AC50 [12]: 6.62 µM (active)

SMILES: N#C/C(=C(/O)CCl)c1nc2c(s1)CCc1ccccc1-2
- EC50 [13]: > 150 µM (not active)
- IC50 [14]: 17.4 µM (active)
- EC50 [15]: > 150 µM (not active)
- EC50 [16]: > 150 µM (not active)

SMILES: CCN(C(=O)COC(=O)CCCOc1ccc(Cl)cc1C)c1c(N)n(Cc2ccccc2)c(=O)[nH]c1=O
- AC50 [7]: 43.7 µM (active)

SMILES: CC(C)(C)N1CCC1CN (stereo not given)
- EC50 [1]: > 55.7 µM (not active)
- EC50 [2]: > 55.7 µM (not active)
